In patent publication US20260285853A1, “COMPOUNDS AND METHODS FOR MODULATING SPLICING” (REMIX THERAPEUTICS INC., priority 2023, published 2026):

Experiments:
Format in all cases: cell-based
[1] = system: HTT mRNA; test: Splicing RT-qPCR assay (THP), Table 2A; details: Table 2A, THP; for AC50: HTT alternative junction (AJ) mRNA, read-out: HTT AJ (AC50, increase in alternative junction mRNA); for IC50: HTT canonical junction (CJ) mRNA, read-out: HTT CJ (IC50, decrease in canonical junction mRNA)
[2] = system: MYB mRNA; test: Splicing RT-qPCR assay (THP), Table 2A; details: Table 2A, THP; for AC50: MYB alternative junction (AJ) mRNA, read-out: MYB AJ (AC50, increase in alternative junction mRNA); for IC50: MYB canonical junction (CJ) mRNA, read-out: MYB CJ (IC50, decrease in canonical junction mRNA)
[3] = system: HTT mRNA; test: Gene panel canonical junction qPCR assay, decrease in CJ mRNA, Table 3; details: decrease in CJ mRNA levels, canonical junction qPCR, gene panel
Summary of the method: (§1)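 A673 (DMEM, 10% FBS, 15,000 cells/well) or K562 (IMDM, 10% FBS) cells treated 24 h at 37 °C with 11-point 3-fold dilutions, top 10 uM, DMSO ≤0.25%. Canonical exon-exon junction mRNA measured by RT-qPCR, normalized to GAPDH, GUSB or PPIA and DMSO (ΔΔCt); IC50 from 4-parameter logistic fit.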

[4] = system: MYB mRNA; test: as above; details: decrease in CJ mRNA levels, canonical junction qPCR, gene panel
Summary of the method: as §1

[5] = system: SH-SY5Y (human neuroblastoma) cells; test: Cell viability, Cell Titer Glo 2.0 assay; details: read-out: Viability SHSY5Y.3 GI50
Summary of the method: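 Toxicity screen in SH-SY5Y cells. Compounds were serially diluted in DMSO and then in medium, giving 0.1% DMSO final. Viability was read with CellTiter-Glo 2.0 after 72 h at 37 °C, 5% CO2, against medium-only blank wells.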

SMILES	IC50 [1]	IC50 [2]	IC50 [3]	IC50 [4]	GI50 [5]	AC50 [1]	AC50 [2]
CNCC1CN(c2ccc(C(=O)Nc3cc(F)c4nn(C)cc4c3)c3nc(OC)sc23)C1 [Compound 750]	< 0.1 µM	< 0.1 µM	< 0.1 µM	< 0.1 µM	0.1 to 1 µM	0.1 to 1 µM	< 0.1 µM
Cc1cn2cc(NC(=O)c3ccc(N4CCC(NC5CC5)CC4)c4cn(C)nc34)nc2c(CNS(=O)(=O)CCO)n1 [Compound 752, 4-[4-(cyclopropylamino)-1-piperidyl]-N-[8-[(2-hydroxyethylsulfonylamino)methyl]-6-methyl-imidazo[1,2-a]pyrazin-2-yl]-2-methyl-indazole-7-carboxamide]	> 10 µM	> 10 µM	> 10 µM	> 10 µM	> 10 µM	> 10 µM	> 10 µM
Cc1cn2cc(NC(=O)c3ccc(N4CCC(NC5CC5)CC4)c4cn(C)nc34)nc2c(CCN)n1 [Compound 753, N-[8-(2-aminoethyl)-6-methyl-imidazo[1,2-a]pyrazin-2-yl]-4-[4-(cyclopropylamino)-1-piperidyl]-2-methyl-indazole-7-carboxamide]	> 10 µM	> 10 µM	> 10 µM	> 10 µM	> 10 µM	> 10 µM	> 10 µM
Cc1cn2cc(NC(=O)c3ccc(N4CCC(NC5CC5)CC4)c4cn(C)nc34)nc2c(CNC(=N)N)n1 [Compound 754, 4-(4-(cyclopropylamino)piperidin-1-yl)-N-(8-(guanidinomethyl)-6-methylimidazo[1,2-a]pyrazin-2-yl)-2-methyl-2H-indazole-7-carboxamide bis(2,2,2-trifluoroacetate)]	> 10 µM	> 10 µM	> 10 µM	> 10 µM	> 10 µM	> 10 µM	> 10 µM
Cc1nc2c(F)cc(NC(=O)c3ccc(N4CCC(NC5CC5)CC4)c4cn(C)nc34)cn2n1 [Compound 755, 4-[4-(cyclopropylamino)-1-piperidyl]-N-(8-fluoro-2-methyl-[1,2,4]triazolo[1,5-a]pyridin-6-yl)-2-methyl-indazole-7-carboxamide]	1 to 10 µM	0.1 to 1 µM	1 to 10 µM	0.1 to 1 µM	0.1 to 1 µM	1 to 10 µM	< 0.1 µM
COc1nc2c(C(=O)Nc3cc(F)c4nn(C)nc4c3)ccc(N3C[C@H](C)N[C@@H](C)C3)c2s1 [Compound 756, 7-[(3S,5S)-3,5-dimethylpiperazin-1-yl]-N-(7-fluoro-2-methyl-benzotriazol-5-yl)-2-methoxy-1,3-benzothiazole-4-carboxamide]	0.1 to 1 µM	< 0.1 µM	0.1 to 1 µM	< 0.1 µM	< 0.1 µM	0.1 to 1 µM	< 0.1 µM
COc1nc2c(C(=O)Nc3ccc4c(c3)CCCO4)ccc(N3C[C@H](C)N[C@@H](C)C3)c2s1 [Compound 760]	> 10 µM	> 10 µM	> 10 µM	> 10 µM	1 to 10 µM	> 10 µM	> 10 µM
COc1nc2c(C(=O)Nc3cc4cn(C)nc4c(F)c3O)ccc(N3C[C@H](C)N[C@@H](C)C3)c2s1 [Compound 761, 7-[(3S,5S)-3,5-dimethylpiperazin-1-yl]-N-(7-fluoro-6-hydroxy-2-methyl-indazol-5-yl)-2-methoxy-1,3-benzothiazole-4-carboxamide]	> 10 µM	0.1 to 1 µM	> 10 µM	0.1 to 1 µM	1 to 10 µM	> 10 µM	0.1 to 1 µM
COc1nc2c(C(=O)Nc3cc(CNC(C)=O)c4nn(C)cc4c3)ccc(N3C[C@H](C)N[C@@H](C)C3)c2s1 [Compound 762, N-[7-(acetamidomethyl)-2-methyl-indazol-5-yl]-7-[(3S,5S)-3,5-dimethylpiperazin-1-yl]-2-methoxy-1,3-benzothiazole-4-carboxamide]	> 10 µM	< 0.1 µM	> 10 µM	< 0.1 µM	1 to 10 µM	> 10 µM	< 0.1 µM
COc1nc2c(C(=O)Nc3cc(F)c4nn(C)cc4c3)ccc(N3CCN[C@H](C)C3)c2s1 [Compound 765]	0.1 to 1 µM	< 0.1 µM	0.1 to 1 µM	< 0.1 µM	0.1 to 1 µM	0.1 to 1 µM	< 0.1 µM
COc1nc2c(C(=O)Nc3cc(F)c4nn(C)cc4c3)ccc(N3CCN[C@@H](C)C3)c2s1 [Compound 766]	< 0.1 µM	< 0.1 µM	< 0.1 µM	< 0.1 µM	< 0.1 µM	< 0.1 µM	< 0.1 µM

Now from value to compound, other results behind:

IC50 [1]	IC50 [2]	IC50 [3]	IC50 [4]	GI50 [5]	SMILES	AC50 [1]	AC50 [2]
> 10 µM	< 0.1 µM	> 10 µM	< 0.1 µM	0.1 to 1 µM	COc1nc2c(C(=O)Nc3cc(C#N)c4nn(C)cc4c3)ccc(N3C[C@H](C)N[C@@H](C)C3)c2s1 [Compound 757, N-(7-cyano-2-methyl-indazol-5-yl)-7-[(3S,5S)-3,5-dimethylpiperazin-1-yl]-2-methoxy-1,3-benzothiazole-4-carboxamide]	1 to 10 µM	< 0.1 µM
> 10 µM	< 0.1 µM	> 10 µM	< 0.1 µM	0.1 to 1 µM	COc1nc2c(C(=O)Nc3cc(C#N)c4nc(C)cn4c3)ccc(N3C[C@H](C)N[C@@H](C)C3)c2s1 [Compound 758, N-(8-cyano-2-methyl-imidazo[1,2-a]pyridin-6-yl)-7-[(3S,5S)-3,5-dimethylpiperazin-1-yl]-2-methoxy-1,3-benzothiazole-4-carboxamide]	> 10 µM	< 0.1 µM
1 to 10 µM	< 0.1 µM	1 to 10 µM	< 0.1 µM	0.1 to 1 µM	COc1nc2c(C(=O)Nc3cn4cc(C)nc4c(OC)n3)ccc(N3C[C@H](C)N[C@@H](C)C3)c2s1 [Compound 759, 7-((3S,5S)-3,5-dimethylpiperazin-1-yl)-2-methoxy-N-(8-methoxy-2-methylimidazo[1,2-a]pyrazin-6-yl)benzo[d]thiazole-4-carboxamide 2,2,2-trifluoroacetate]	1 to 10 µM	< 0.1 µM
1 to 10 µM	< 0.1 µM	1 to 10 µM	< 0.1 µM	< 0.1 µM	COc1nc2c(C(=O)Nc3cc(F)c4nc(C)nn4c3)ccc(N3C[C@H](C)N[C@@H](C)C3)c2s1 [Compound 763, 7-[(3S,5S)-3,5-dimethylpiperazin-1-yl]-N-(8-fluoro-2-methyl-[1,2,4]triazolo[1,5-a]pyridin-6-yl)-2-methoxy-1,3-benzothiazole-4-carboxamide]	0.1 to 1 µM	< 0.1 µM
1 to 10 µM	< 0.1 µM	1 to 10 µM	< 0.1 µM	0.1 to 1 µM	COc1nc2c(C(=O)Nc3cn4cc(C)nc4c(F)c3OC)ccc(N3C[C@H](C)N[C@@H](C)C3)c2s1 [Compound 764, 7-((3S,5S)-3,5-dimethylpiperazin-1-yl)-N-(8-fluoro-7-methoxy-2-methylimidazo[1,2-a]pyridin-6-yl)-2-methoxybenzo[d]thiazole-4-carboxamide 2,2,2-trifluoroacetate]	> 10 µM	< 0.1 µM
